Tested on: Unknown protein yeast genes
Assay: DNA chip mRNA expression in yeast, unknown protein yeast genes (Table 1)
Assay type: cell-based, Saccharomyces cerevisiae S288C
Outline: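 S. cerevisiae S288C grown at 25° C in YPD were exposed in log phase for two hours to one toxic chemical at a growth-inhibiting, non-lethal concentration; untreated cells served as control. Poly(A) mRNA was reverse-transcribed with Cy3/Cy5-dUTP and hybridized to a whole-genome yeast DNA chip at 65° C for over 12 hours; values are fluorescence ratios versus untreated.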

## CCCCCCCCCCCCc1ccc(S(=O)(=O)[O-])cc1.[Na+] [(17), sodium dodecylbenzosulfonate]
Yeast gene YAL053W, incubated two hours with chemical substance
  The level of expressed mRNA in the presence of chemical substance/The level of expressed mRNA in the absence of chemical substance: 1.2
Yeast gene YBL048W
  The level of expressed mRNA in the presence of chemical substance/The level of expressed mRNA in the absence of chemical substance: 1.3
Yeast gene YBL107C
  The level of expressed mRNA in the presence of chemical substance/The level of expressed mRNA in the absence of chemical substance: 0.9
Yeast gene YDL072C, incubated two hours with chemical substance
  The level of expressed mRNA in the presence of chemical substance/The level of expressed mRNA in the absence of chemical substance: 1.6
Yeast gene YDL204W, incubated two hours with chemical substance
  The level of expressed mRNA in the presence of chemical substance/The level of expressed mRNA in the absence of chemical substance: 1.8
Yeast gene YDL222C, incubated two hours with chemical substance
  The level of expressed mRNA in the presence of chemical substance/The level of expressed mRNA in the absence of chemical substance: 0.9
Yeast gene YDR330W, incubated two hours with chemical substance
  The level of expressed mRNA in the presence of chemical substance/The level of expressed mRNA in the absence of chemical substance: 1.5
Yeast gene YDR411C, incubated two hours with chemical substance
  The level of expressed mRNA in the presence of chemical substance/The level of expressed mRNA in the absence of chemical substance: 1.5
Yeast gene YDR511W, incubated two hours with chemical substance
  The level of expressed mRNA in the presence of chemical substance/The level of expressed mRNA in the absence of chemical substance: 1.3
Yeast gene YDR545W, incubated two hours with chemical substance
  The level of expressed mRNA in the presence of chemical substance/The level of expressed mRNA in the absence of chemical substance: 0.9
Yeast gene YEL001C, incubated two hours with chemical substance
  The level of expressed mRNA in the presence of chemical substance/The level of expressed mRNA in the absence of chemical substance: 0.7
Yeast gene YER004W, incubated two hours with chemical substance
  The level of expressed mRNA in the presence of chemical substance/The level of expressed mRNA in the absence of chemical substance: 1.4
Yeast gene YER035W, incubated two hours with chemical substance
  The level of expressed mRNA in the presence of chemical substance/The level of expressed mRNA in the absence of chemical substance: 2.2
Yeast gene YER079W, incubated two hours with chemical substance
  The level of expressed mRNA in the presence of chemical substance/The level of expressed mRNA in the absence of chemical substance: 1.0
Yeast gene YER106W, incubated two hours with chemical substance
  The level of expressed mRNA in the presence of chemical substance/The level of expressed mRNA in the absence of chemical substance: 0.8
Yeast gene YER158C, incubated two hours with chemical substance
  The level of expressed mRNA in the presence of chemical substance/The level of expressed mRNA in the absence of chemical substance: 1.6
Yeast gene YER163C, incubated two hours with chemical substance
  The level of expressed mRNA in the presence of chemical substance/The level of expressed mRNA in the absence of chemical substance: 1.2
Yeast gene YER175C, incubated two hours with chemical substance
  The level of expressed mRNA in the presence of chemical substance/The level of expressed mRNA in the absence of chemical substance: 0.9
Yeast gene YFL006W, incubated two hours with chemical substance
  The level of expressed mRNA in the presence of chemical substance/The level of expressed mRNA in the absence of chemical substance: 1.0
Yeast gene YFL010C, incubated two hours with chemical substance
  The level of expressed mRNA in the presence of chemical substance/The level of expressed mRNA in the absence of chemical substance: 1.9
Yeast gene YFL024C
  The level of expressed mRNA in the presence of chemical substance/The level of expressed mRNA in the absence of chemical substance: 0.9
Yeast gene YFL032W, incubated two hours with chemical substance
  The level of expressed mRNA in the presence of chemical substance/The level of expressed mRNA in the absence of chemical substance: 1.7
Yeast gene YGL037C, incubated two hours with chemical substance
  The level of expressed mRNA in the presence of chemical substance/The level of expressed mRNA in the absence of chemical substance: 1.3
Yeast gene YGL047W, incubated two hours with chemical substance
  The level of expressed mRNA in the presence of chemical substance/The level of expressed mRNA in the absence of chemical substance: 1.1
Yeast gene YGL053W, incubated two hours with chemical substance
  The level of expressed mRNA in the presence of chemical substance/The level of expressed mRNA in the absence of chemical substance: 2.2
Yeast gene YGL121C
  The level of expressed mRNA in the presence of chemical substance/The level of expressed mRNA in the absence of chemical substance: 2.7
Yeast gene YGL199C, incubated two hours with chemical substance
  The level of expressed mRNA in the presence of chemical substance/The level of expressed mRNA in the absence of chemical substance: 1.2
Yeast gene YGR101W, incubated two hours with chemical substance
  The level of expressed mRNA in the presence of chemical substance/The level of expressed mRNA in the absence of chemical substance: 1.0
Yeast gene YGR110W
  The level of expressed mRNA in the presence of chemical substance/The level of expressed mRNA in the absence of chemical substance: 0.9
Yeast gene YGR130C, incubated two hours with chemical substance
  The level of expressed mRNA in the presence of chemical substance/The level of expressed mRNA in the absence of chemical substance: 1.3
Yeast gene YGR154C, incubated two hours with chemical substance
  The level of expressed mRNA in the presence of chemical substance/The level of expressed mRNA in the absence of chemical substance: 1.0
Yeast gene YGR221C, incubated two hours with chemical substance
  The level of expressed mRNA in the presence of chemical substance/The level of expressed mRNA in the absence of chemical substance: 1.3
Yeast gene YHR138C, incubated two hours with chemical substance
  The level of expressed mRNA in the presence of chemical substance/The level of expressed mRNA in the absence of chemical substance: 5.0
Yeast gene YHR199C, incubated two hours with chemical substance
  The level of expressed mRNA in the presence of chemical substance/The level of expressed mRNA in the absence of chemical substance: 1.1
Yeast gene YIL023C, incubated two hours with chemical substance
  The level of expressed mRNA in the presence of chemical substance/The level of expressed mRNA in the absence of chemical substance: 1.2
Yeast gene YIL041W, incubated two hours with chemical substance
  The level of expressed mRNA in the presence of chemical substance/The level of expressed mRNA in the absence of chemical substance: 0.8
Yeast gene YIL087C, incubated two hours with chemical substance
  The level of expressed mRNA in the presence of chemical substance/The level of expressed mRNA in the absence of chemical substance: 1.7
Yeast gene YJL057C, incubated two hours with chemical substance
  The level of expressed mRNA in the presence of chemical substance/The level of expressed mRNA in the absence of chemical substance: 1.4
Yeast gene YJL066C, incubated two hours with chemical substance
  The level of expressed mRNA in the presence of chemical substance/The level of expressed mRNA in the absence of chemical substance: 1.4
Yeast gene YJL082W, incubated two hours with chemical substance
  The level of expressed mRNA in the presence of chemical substance/The level of expressed mRNA in the absence of chemical substance: 0.6
Yeast gene YJL151C, incubated two hours with chemical substance
  The level of expressed mRNA in the presence of chemical substance/The level of expressed mRNA in the absence of chemical substance: 3.5
Yeast gene YJL152W, incubated two hours with chemical substance
  The level of expressed mRNA in the presence of chemical substance/The level of expressed mRNA in the absence of chemical substance: 2.5
Yeast gene YJL161W, incubated two hours with chemical substance
  The level of expressed mRNA in the presence of chemical substance/The level of expressed mRNA in the absence of chemical substance: 1.9
Yeast gene YJL171C, incubated two hours with chemical substance
  The level of expressed mRNA in the presence of chemical substance/The level of expressed mRNA in the absence of chemical substance: 3.6
Yeast gene YJR008W, incubated two hours with chemical substance
  The level of expressed mRNA in the presence of chemical substance/The level of expressed mRNA in the absence of chemical substance: 1.5
Yeast gene YJR054W, incubated two hours with chemical substance
  The level of expressed mRNA in the presence of chemical substance/The level of expressed mRNA in the absence of chemical substance: 0.9
Yeast gene YKL071W
  The level of expressed mRNA in the presence of chemical substance/The level of expressed mRNA in the absence of chemical substance: 1.0
Yeast gene YKL086W, incubated two hours with chemical substance
  The level of expressed mRNA in the presence of chemical substance/The level of expressed mRNA in the absence of chemical substance: 0.9
Yeast gene YKL151C, incubated two hours with chemical substance
  The level of expressed mRNA in the presence of chemical substance/The level of expressed mRNA in the absence of chemical substance: 1.4
Yeast gene YKL153W, incubated two hours with chemical substance
  The level of expressed mRNA in the presence of chemical substance/The level of expressed mRNA in the absence of chemical substance: 0.9

Reference: patent US8192962B2, “Processes for detecting toxic substances” (Daikin Industries, Ltd., priority 2001, dated 2012)
